Measured values from US12370157B2, “Method for the treatment of COVID-19 infections with palmitoylethanolamide” (Epitech Group S.p.A., priority 2021, dated 2025).

Test: Plasma levels of the two forms of PEA
Details: in vivo

With CCCCCCCCCCCCCCCC(=O)NCCO [PEA-um, palmitoylethanolamide] the “Plasma levels, PEA-um compared with PEA-m” value was “substantially the same”.
